In patent US6447749B1, “Perfluoro-alkyl containing dye molecules and galencial formulations” (Schering Aktiengesellschaft, priority 1999, dated 2002):

Experiments:
regional lymph nodes = experiment: Coloring of regional lymph nodes after interstitial administration; type: in vivo; settings: guinea pig; formulation 5 mol % of dye 8/95 mol % Gd complex; after interstitial/intracutaneous administration, lymph nodes prepared ex vivo; listed as 8, sodium salt
Method: After the interstitial near-infrared lymphography was completed, the regional lymph nodes were prepared in the area of the administration site. […] This coloring can be used for the intraoperative diagnosis for the identification of the draining lymph nodes of a certain tissue area and for differentiating the lymph nodes from the surrounding tissue.

[1] = Photophysical characterization: fluorescence properties and fluorescence quantum yield (SPEX-fluorolog, relative to indocyanine green); type: physicochemical
Method: (§1) The determination of the absorption maxima and extinction coefficients was carried out with a Lambda 2-spectrometer (Perkin-Elmer Company). The fluorescence properties were determined on a SPEX-fluorolog (Instruments S. A. Company, photomultiplier Hamamatsu PM928, excitation 350W xenon lamp). the determination of the fluorescence quantum yield was carried out relative to indocyanine green (O=13% in DMSO) by excitation at 585 nm (dyes with p=2) or 685 nm (dyes with p=3), in each case of solutions of concentration 2 μM in dye, and correction with the spectral sensitivity of lamp and detector.

lymph nodes [2] = experiment: Fluorescence coloring of lymph nodes after interstitial administration (monosaccharide formulation); type: in vivo; settings: 5 mol % of dye 8 and 95 mol % mannopyranosyl perfluoroalkyl amide
Method: From the substance, 0.1 ml of a solution that contained 1 mmol/L of dye 8 and 19 mmol/L of 6-[1-O-α-D-mannopyranosyl]-hexanoic acid N-(3-oxa-1H,1H,2H,2H,4H,4H,5H,5H-perfluorotridecyl)-amide was administered interstitially in a skin fold between the toes of the right rear extremity of the animal. Five hours after administration, the lymph nodes of the right and left sides of the body were prepared, and a fluorescence image was recorded. The fluorescence of the substances was stimulated by irradiation of the lymph nodes with near-infrared light of wavelength 740 nm, which was produced with an Nd:YAG laser. The fluorescence radiation was detected at a wavelength of >800 nm by an intensified CCD-camera, and the fluorescence images were stored digitally.

[3] = Photophysical characterization: absorption maxima and extinction coefficients (Lambda 2-spectrometer); type: physicochemical
Method: as §1

lymph nodes [4] = experiment: Fluorescence coloring of lymph nodes after intravenous administration; type: in vivo; settings: rat; 5 hours after intravenous administration; 0.2 ml of 0.5 mmol/L dye 8 and 9.5 mmol/L Gd complex; excitation 740 nm, detection >800 nm
Method: From the substance, 0.2 ml of a solution that contained 0.5 mmol/L of dye 8 and 9.5 mmol/L of 10-[1-methyl-2-oxo-3-aza-5-oxo-5-{4-perfluorooctylsulfonyl-piperazin-1-yl}-pentyl]-1,4,7-tris(carboxymethyl)-1,4,7,10-tetraazacyclododecane, was administered intravenously in a caudal vein of the rat. Five hours after administration, the lymph nodes were prepared and a fluorescence image was recorded. The fluorescence of the substances was stimulated by irradiation of the lymph nodes with near-infrared light of wavelength 740 nm, which was produced with an Nd:YAG laser. The fluorescence radiation was detected at a wavelength of >800 nm by an intensified CCD-camera, and the fluorescence images were stored digitally.

lymph nodes [5] = experiment: Visualization of lymph nodes in situ after interstitial administration; type: in vivo, rat; settings: five hours after interstitial administration
Method: 0.1 ml of a formulation that contained 1 mmol/L of dye 8 and 19 mmol/L of 6-[1-O-α-D-mannopyranosyl)-hexanoic acid N-(3-oxa-1H,1H,2H,2H,4H,4H,5H,5H-perfluorotridecyl)-amide was administered interstitially in a skin fold between the toes of the right rear extremity. Five hours after administration, the test animal was sacrificed and opened abdominally. Based on the fluorescence image, the lymph nodes can be localized in situ and the lymph tracts can be visualized. […] The fluorescence of the substances was stimulated by irradiation of the abdominally-opened animal with near-infrared light of wavelength 740 nm, which was produced with an Nd:YAG laser. The fluorescence radiation was detected at a wavelength of >800 nm by an intensified CCD-camera, and the fluorescence images were stored digitally.

popliteal lymph node = experiment: Localization in lymph nodes by fluorescence microscopy on frozen sections; type: in vivo; settings: guinea pig popliteal lymph node; four hours after interstitial administration; formulation 5 mol % of dye 8/95 mol % Gd complex; untreated animals no fluorescence
Method: The localization of the formulations according to the invention in lymph nodes was studied by fluorescence microscopy on frozen sections of the lymph nodes. In this respect, the lymph nodes were prepared after the lymphography and deep-frozen at −80° C. Sections with a 5 μm thickness were produced on a freezing microtome. The evaluation was carried out on a Zeiss Axiovert 135-fluorescence microscope, which was equipped with a Cy 7-(excitation filter HQ710/70 nm, emission filter 810/90 nm, beam splitter 750 nm LP). From all the preparations, white light and fluorescence images were recorded with a CCD camera (Princeton Instruments RTE/CCD-576) and stored digitally.
Images of a cryosection from a popliteal lymph node of an untreated guinea pig in bright field (3c) and in near-infrared-fluorescence (3d) are shown for comparison.

[6] = dyes 7-14 table, formulation with Gd-complex perfluoroalkyl derivative (WO 97/26017 Ex. 33), 5 mol % of dye
[7] = formulation with Gd-complex perfluoroalkyl derivative (WO 97/26017 Ex. 33), 1 mol % of dye
[8] = formulation with Gd-complex perfluoroalkyl derivative (WO 97/26017 Ex. 33), 2 mol % of dye
[9] = formulation with Gd-complex perfluoroalkyl derivative (WO 97/26017 Ex. 33), 5 mol % of dye
[10] = formulation with Gd-complex perfluoroalkyl derivative (WO 97/26017 Ex. 33), 10 mol % of dye
[11] = three-component formulation: 5 mol % of dye, 0 mol % of Gd complex, 95 mol % of monosaccharide
[12] = three-component formulation: 5 mol % of dye, 10 mol % of Gd complex, 85 mol % of monosaccharide
[13] = three-component formulation: 5 mol % of dye, 30 mol % of Gd complex, 65 mol % of monosaccharide
[14] = three-component formulation: 5 mol % of dye, 50 mol % of Gd complex, 45 mol % of monosaccharide
[15] = three-component formulation: 5 mol % of dye, 70 mol % of Gd complex, 25 mol % of monosaccharide
[16] = three-component formulation: 5 mol % of dye, 90 mol % of Gd complex, 5 mol % of monosaccharide
[17] = five hours after interstitial administration (right rear extremity)

For `CC1(C)C(=CC=CC=CC=CC2=[N+](CCCCS(=O)(=O)[O-])c3ccc(C(=O)N(CCOCCC(F)(F)C(F)(F)C(F)(F)C(F)(F)C(F)(F)C(F)(F)C(F)(F)C(F)(F)F)CC(O)CO)cc3C2(C)C)N(CCCCS(=O)(=O)[O-])c2ccccc21.[Na+]` (stereo not shown) [Dye 10, 5-{N-[2-(3,3,4,4,5,5,6,6,7,7,8,8,9,9,10,10,10-heptadecafluorodecyloxy)ethyl]-N-(2,3-dihydroxypropyl)aminocarbonyl}-2-{7-[1,3-dihydro-3,3-dimethyl-1-(4-sulfobutyl)-2H-indol-2-ylidene]-1,3,5-heptatrienyl}-3,3-dimethyl-1-(4-sulfobutyl)-3H-indolium, internal salt, sodium salt], the “coloring of regional (inguinal) lymph nodes” value (regional lymph nodes) was “clearly visible green-coloring”, the Fluorescence max. [1, 6] was 788 nm and the Fluorescence quantum yield ([1]; dyes 7-14 table, formulation with Gd-complex perfluoroalkyl derivative (WO 97/26017 Ex. 33), 5 mol % of dye, 2 μM in dye) was 0.14. It also gave a Fluorescence max. [1, 7] of 784 nm, a Fluorescence quantum yield ([1]; formulation with Gd-complex perfluoroalkyl derivative (WO 97/26017 Ex. 33), 1 mol % of dye, 2 μM in dye) of 0.23 and a Fluorescence max. [1, 8] of 785 nm. The Fluorescence quantum yield ([1]; formulation with Gd-complex perfluoroalkyl derivative (WO 97/26017 Ex. 33), 2 mol % of dye, 2 μM in dye) was 0.23, the Fluorescence max. [1, 9] was 788 nm and the Fluorescence quantum yield ([1]; formulation with Gd-complex perfluoroalkyl derivative (WO 97/26017 Ex. 33), 5 mol % of dye, 2 μM in dye) was 0.14. It also gave a Fluorescence max. [1, 10] of 790 nm, a Fluorescence quantum yield ([1]; formulation with Gd-complex perfluoroalkyl derivative (WO 97/26017 Ex. 33), 10 mol % of dye, 2 μM in dye) of 0.03 and a Fluorescence maximum [1, 11] of 800 nm. The Fluorescence quantum yield [1, 11] was 0.16, the Fluorescence maximum [1, 12] was 800 nm and the Fluorescence quantum yield [1, 12] was 0.11. For the same molecule, the Fluorescence maximum [1, 13] was 800 nm, the Fluorescence quantum yield [1, 13] was 0.14 and the Fluorescence maximum [1, 14] was 798 nm. The Fluorescence quantum yield [1, 14] was 0.26, the Fluorescence maximum [1, 15] was 794 nm and the Fluorescence quantum yield [1, 15] was 0.18. The Fluorescence maximum [1, 16] was 793 nm, the Fluorescence quantum yield [1, 16] was 0.13 and the “fluorescence signal of lymph nodes, left side of the body” value (lymph nodes [2]; [17]) was “no lymph nodes of the left side of the body”. For the same molecule, the “fluorescence signal of lymph nodes, right (administered) side of the body” value (lymph nodes [2]; [17]) was “Most lymph nodes of the right (administered) side of the body showed a fluorescence signal”, the “coloring of the fluorescence-labeled lymph nodes” value (lymph nodes [2]; five hours after interstitial administration) was “greenish-colored” and the Absorption max. [3, 6] was 753 nm. The Extinction coefficient [3, 6] was 120,800 L mol^−1 cm^−1, the Absorption max. [3, 7] was 755 nm and the Extinction coefficient [3, 7] was 150,500 L mol^−1 cm^−1. For the same molecule, the Absorption max. [3, 8] was 755 nm, the Extinction coefficient [3, 8] was 148,800 L mol^−1 cm^−1 and the Absorption max. [3, 9] was 753 nm. For the same molecule, the Extinction coefficient [3, 9] was 120,800 L mol^−1 cm^−1, the Absorption max. [3, 10] was 751 nm and the Extinction coefficient [3, 10] was 108,500 L mol^−1 cm^−1. It also gave an Absorption maximum [3, 11] of 760 nm, an Extinction coefficient [3, 11] of 90500 L/mol/cm and an Absorption maximum [3, 12] of 760 nm. The Extinction coefficient [3, 12] was 102700 L/mol/cm, the Absorption maximum [3, 13] was 760 nm and the Extinction coefficient [3, 13] was 107900 L/mol/cm. It also gave an Absorption maximum [3, 14] of 756 nm, an Extinction coefficient [3, 14] of 108700 L/mol/cm and an Absorption maximum [3, 15] of 756 nm. The Extinction coefficient [3, 15] was 111100 L/mol/cm, the Absorption maximum [3, 16] was 755 nm and the Extinction coefficient [3, 16] was 112500 L/mol/cm. For the same molecule, the “fluorescence signal of axillary, inguinal and popliteal lymph nodes” value (lymph nodes [4]) was “All lymph nodes showed a clear fluorescence signal”, the “visualization of lymph nodes and lymph tract in situ by fluorescence” value (lymph nodes [5]; abdominally-opened rat, 0.1 ml of 1 mmol/L dye 8 and 19 mmol/L mannopyranosyl perfluoroalkyl amide) was “visualized based on a fluorescence signal” and the “visual coloring of lymph nodes in situ” value (lymph nodes [5]; rat, 5 mol % of dye 8 and 95 mol % mannopyranosyl perfluoroalkyl amide) was “green coloring”. For the same molecule, the “near-infrared fluorescence of lymph node frozen sections” value (popliteal lymph node) was “pronounced fluorescence”.
